According to US20240424115A1, “LONG-ACTING INTERLEUKIN-15 RECEPTOR AGONISTS AND RELATED IMMUNOTHERAPEUTIC COMPOSITIONS AND METHODS” (Nektar Therapeutics, priority 2017, published 2024):
“Also recorded” adds a separate entry of the source.

Experiments:
[1] = Single dose PK study in mice (plasma concentration)
Description: C57BL/6 mice (n=3/group) were administered a single intravenous dose of IL-15 (control) at 0.3 mg/kg) or of Conjugate 2 at a dose of 0.3 mg/kg. Following administration, blood samples were collected at various time points post administration (24 hours, 48 hours, 78 hours, 96 hours). […] Finally, at each time point, plasma concentration of drug was determined.
For PK analysis, Conjugate 1 was administered as a single intravenous dose at 0.3 mg/kg in balb/c mice (n=3). Following administration, mice were humanely sacrificed and plasma was collected 24, 48, 72, 96, 120 and 144 hours post treatment. From a separate study, mice were administered a single intravenous dose of IL-15 (0.5 mg/kg). Samples from these mice were collected at the indicated time points within 6 hours of treatment.
Balb/c mice (n=3/group) were administered a single intravenous dose of IL-15 (500 ug/kg) or of Conjugate 1 at 10, 30, 100, 300 and 1000 μg/kg. Blood samples were collected at the indicated time points post administration (conjugate 1:24, 48, 72, 96, 120, 144, 240 hours; IL-15 control: 0.03, 0.08, 0.25, 0.5, 1, 2, 4, 6, 8, hours) and plasma concentration of drug was determined.

CD4, CD8, and NK cells = test: In vivo IL-15 signaling (STAT5 phosphorylation in lymphocytes) in mice
Text: Conventional approaches, such as those involving radiolabeling a compound, administering the compound in vivo, and determining its clearance, can be used to assess whether a compound proposed to be a long-acting, IL-15 R agonist is “long-acting” (i.e., has a clearance that is longer than that of IL-15 administered in the same in vivo system). For the purposes herein, the long acting nature of a long-acting IL-15 R agonist may be, and is typically determined using flow cytometry to measure STAT5 phosphorylation in lymphocytes at various time points after administration of the agonist to be evaluated in mice. As a reference, the signal is lost by around 24 hours with IL-15, but is sustained for a period greater than that for a long-acting IL-15 agonist.
Mice were dosed as described in Example 6 above to assess in-vivo signaling as assessed by degree of STAT5 phosphorylation. Degree of STAT5 phosphorylation in various lymphocytes (CD4, CD8, and NK cells) was assessed by staining whole blood for leukocyte surface markers and pSTAT5, followed by measurement by flow cytometry. Results are shown in FIGS. 8A and 8 B for IL-15 and for Conjugate 2, respectively.
[PK methods previously described herein].
STAT5 phosphorylation in CD4 T cells was determined by using a CD3+CD4+CD8-pSTAT5+ marker combination. FIG. 43 is a plot of pSTAT5 phosphorylation percent positivity within CD4 T cells over time (at 0.25, 1, 6, 24, 48, 72, 96 and 120 hours post administration) at a dose of 0.03 mg/kg (blue, solid squares) or 0.3 mg/kg (orange, solid circles). The vehicle over time (black) and pre-dose (open circles) levels are also shown.

CTLL-2 cells = test: Potency assay based on STAT5 phosphorylation in CTLL-2 cells; type: cell-based, murine; conditions: Table 2B
Description: In the phospho-STAT5 assay following receptor binding, downstream cell signaling can then activate Signal Transducer and Activator of Transcription 5 (STAT5) through phosphorylation to promote gene expression to induce cell proliferation. The activation of phosho-STAT5 is measured in CTLL-2 cells, a murine T lymphocyte cell line, using the phospho-STAT5/total STAT5 multiplexed assay (Meso Scale Discovery, MD) in response to sample and reference treatment for ˜10 minutes.
One day prior to the assay, CTLL-2 cells were split into fresh growth medium [RPMI 1640 supplemented with 10% FBS, 10% T-cell culture supplement (catalog #354115, Corning, Inc., Tewksbury, MA), 2 mM L-glutamate, and 1 mM sodium pyruvate]. On the day of assay, cells were pre-incubated in assay medium (RPMI 1640 supplemented with 1% FBS, 2 mM L-glutamate, and 1 mM sodium pyruvate) for at least four hours, and then plated in assay medium in a 96-well plate at 50,000 cells/well. Dilutions of the test article were prepared in an appropriate buffer immediately prior to assay. Stimulation of CTLL-2 cells was initiated by the transfer of 25X test article solutions to triplicate wells containing CTLL-2 cells. Plates were incubated at 37° C., 5% CO2 for 10 minutes, and the reaction was stopped by cell lysis. Detection of phospho-STAT5 and total STAT5 protein levels in cell lysates was performed using the MSD Phospho (Tyr694)/Total STATa,b Whole Cell Lysate Kit (Meso Scale Discovery, MD).

human PBMCs = test: HuPBMC-pStat5 assay (flow cytometry, lymphocyte subpopulations); type: cell-based
Description: The potency of IL-15 or long acting IL-15 R agonists on various human lymphocyte subpopulations was determined by phospho-STAT5 (Y694) dose response assay. Frozen human PBMCs from multiple donors were supplied by AllCells. 1×10^6 cells/100ul were cultured in complete RPMI media for 2 hours and then incubated with the indicated concentrations (10,000ng/ml-0.001ng/ml serial dilutions) of IL-15 or conjugates for 20minutes at 37c. The cells were then fixed (using BD Cytofix) and permeabilized (using 100% pre-chilled methanol) and stained with antibodies for CD3, CD4, CD8, CD4-Tregs (CD4+CD25+Foxp3+), CD56 and phosphorylated STAT5 (Y694) before analysis by flow cytometry. Concentration-response relationships were used to calculate the EC50 values.
Assessment of in-vitro activity of exemplary long-acting IL-15 receptor agonists (e.g., Conjugates 1, 3 and 5) was carried out by investigating signaling in NK cell subsets of human PBMCs as shown in FIGS. 10A (CD56bright cells) and 10B (CD56dim cells). STAT5 phosphorylation was evaluated as previously described for assessing IL-15 signaling activity of the long acting IL-15 receptor agonists.
A second study was conducted to investigate/compare the pStat5 response of human PBMCs obtained from two donors (CD3, CD4, CD8, CD56 (bright and dim) and CD4-Tregs (CD25+Foxp3+)) to IL-15, Conjugate 1 and Conjugate 5. An […] dose response was examined using a 10-fold dilution with a dose range of 0.001-10000 ng/ml and a 20 min stimulation. Each of the test articles was diluted in IL-15 buffer+0.1% BSA.
Assessment of in vitro activity of Conjugate 1 was carried out by investigating NK and CD8 JAK/STAT signaling after treatment of human PBMCs with IL-15 or Conjugate 1 at a dose range of 0.001-10000 ng/ml. STAT5 phosphorylation was assessed as previously described.

## IL-15: recombinant human IL-15 from E. coli, SEQ ID NO: 1, non-glycosylated, 12.9 kDa; unconjugated comparator
[1]; balb/c mice, single i.v., Conjugate 1 0.3 mg/kg, IL-15 0.5 mg/kg (Example 16)
  half-life: less than 1 hours
[1]; mice, single i.v. dose
  plasma levels following administration: rapid drop in plasma levels; also recorded: rapidly cleared
CD4, CD8, and NK cells; C57BL/6 mice, single i.v. 0.3 mg/kg
  duration of in-vivo STAT5 phosphorylation activity in NK and CD8 cells: extremely short-lived
CD4, CD8, and NK cells; mice, reference
  time by which the STAT5 phosphorylation signal in lymphocytes is lost: around 24 hours
CTLL-2 cells
  EC50 (ng/mL) CTLL-2 pSTAT5: 0.27 ng/mL
Human PBMCs; CD3 cells, donor1, 20 min stimulation
  EC50 (ng/ml)-% pSTAT5 CD3 donor1: 0.17 ng/ml
Human PBMCs; CD3 cells, donor2, 20 min stimulation
  EC50 (ng/ml)-% pSTAT5 CD3 donor2: 0.17 ng/ml
Human PBMCs; CD4-Treg cells, donor1
  EC50 (ng/ml)-% pSTAT5 Treg donor1: 0.08 ng/ml
Human PBMCs; CD4-Treg cells, donor2
  EC50 (ng/ml)-% pSTAT5 Treg donor2: 0.084 ng/ml
Human PBMCs; CD4 cells, donor1
  EC50 (ng/ml)-% pSTAT5 CD4 donor1: 0.177 ng/ml
Human PBMCs; CD4 cells, donor2
  EC50 (ng/ml)-% pSTAT5 CD4 donor2: 0.20 ng/ml
Human PBMCs; CD8 cells, donor1
  EC50 (ng/ml)-% pSTAT5 CD8 donor1: 0.17 ng/ml
Human PBMCs; CD8 cells, donor2
  EC50 (ng/ml)-% pSTAT5 CD8 donor2: 0.15 ng/ml
Human PBMCs; CD56bright cells, donor1
  EC50 (ng/ml)-% pSTAT5 CD56bright donor1: 0.11 ng/ml
Human PBMCs; CD56bright cells, donor2
  EC50 (ng/ml)-% pSTAT5 CD56bright donor2: 0.19 ng/ml
Human PBMCs; CD56dim cells, donor1
  EC50 (ng/ml)-% pSTAT5 CD56dim donor1: 0.26 ng/ml
Human PBMCs; CD56dim cells, donor2
  EC50 (ng/ml)-% pSTAT5 CD56dim donor2: 0.54 ng/ml
Human PBMCs; Table 3, CD56bright NK cells
  EC50 (ng/ml) pSTAT5 CD56bright NK: 0.4 ng/ml
Human PBMCs; Table 7 Summary Table, CD3
  EC50 (ng/ml)-% pSTAT5 CD3: 0.17 ng/ml
Human PBMCs; Table 7 Summary Table, CD4
  EC50 (ng/ml)-% pSTAT5 CD4: 0.177 ng/ml
Human PBMCs; Table 7 Summary Table, CD8
  EC50 (ng/ml)-% pSTAT5 CD8: 0.17 ng/ml
Human PBMCs; Table 7 Summary Table, CD56bright
  EC50 (ng/ml)-% pSTAT5 CD56bright: 0.11 ng/ml
Human PBMCs; Table 7 Summary Table, CD56dim
  EC50 (ng/ml)-% pSTAT5 CD56dim: 0.26 ng/ml
Human PBMCs; Table 7 Summary Table, Treg
  EC50 (ng/ml)-% pSTAT5 Treg: 0.08 ng/ml
Human PBMCs; pSTAT5 MFI, CD3 cells, donor1
  EC50 (ng/ml)-MFI CD3 donor1: 4.0 ng/mL
Human PBMCs; pSTAT5 MFI, CD3 cells, donor2
  EC50 (ng/ml)-MFI CD3 donor2: 5.22 ng/mL
Human PBMCs; pSTAT5 MFI, CD4-Treg cells, donor1
  EC50 (ng/ml)-MFI Treg donor1: 0.6 ng/mL
Human PBMCs; pSTAT5 MFI, CD4-Treg cells, donor2
  EC50 (ng/ml)-MFI Treg donor2: 0.71 ng/mL
Human PBMCs; pSTAT5 MFI, CD4 cells, donor1
  EC50 (ng/ml)-MFI CD4 donor1: 3.6 ng/mL
Human PBMCs; pSTAT5 MFI, CD4 cells, donor2
  EC50 (ng/ml)-MFI CD4 donor2: 5.8 ng/mL
Human PBMCs; pSTAT5 MFI, CD8 cells, donor1
  EC50 (ng/ml)-MFI CD8 donor1: 3.5 ng/mL
Human PBMCs; pSTAT5 MFI, CD8 cells, donor2
  EC50 (ng/ml)-MFI CD8 donor2: 5.5 ng/mL
Human PBMCs; pSTAT5 MFI, CD56bright cells, donor1
  EC50 (ng/ml)-MFI CD56bright donor1: 0.49 ng/mL
Human PBMCs; pSTAT5 MFI, CD56bright cells, donor2
  EC50 (ng/ml)-MFI CD56bright donor2: 0.96 ng/mL
Human PBMCs; pSTAT5 MFI, CD56dim cells, donor1
  EC50 (ng/ml)-MFI CD56dim donor1: 1.4 ng/mL
Human PBMCs; pSTAT5 MFI, CD56dim cells, donor2
  EC50 (ng/ml)-MFI CD56dim donor2: 3.7 ng/mL
